{"source": "BindingDB's records for doi:10.1016/j.ejmech.2011.07.022", "about": "(Medical University of Warsaw, 2011)", "molecular_target": "T1, 5-hydroxytryptamine receptor 1A (Rattus norvegicus, UniProt P19327)", "T1 sequence (P19327 whole entry)": "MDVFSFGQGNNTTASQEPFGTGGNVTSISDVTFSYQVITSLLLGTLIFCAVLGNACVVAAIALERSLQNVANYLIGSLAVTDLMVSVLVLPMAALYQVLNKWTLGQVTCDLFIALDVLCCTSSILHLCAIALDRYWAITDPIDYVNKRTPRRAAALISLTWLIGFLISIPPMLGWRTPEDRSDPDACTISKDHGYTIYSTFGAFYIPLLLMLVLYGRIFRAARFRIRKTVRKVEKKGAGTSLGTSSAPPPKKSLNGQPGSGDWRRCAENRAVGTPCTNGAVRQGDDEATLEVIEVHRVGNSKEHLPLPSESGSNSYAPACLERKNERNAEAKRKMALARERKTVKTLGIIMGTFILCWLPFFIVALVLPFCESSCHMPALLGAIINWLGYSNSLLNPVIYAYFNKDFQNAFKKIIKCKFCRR", "test": "Displacement of [3H]8OH-DPAT from 5HT1A in rat brain cerebral cortex after 15 mins by scintillation counting"}
{"smiles": "COc1ccc(Cl)cc1C(=O)NC1C[C@H]2CC[C@H](C1)N2Cc1ccco1", "note": "(stereo partly specified)", "values": [{"measurement": "Ki", "result": "> 100", "unit": "µM"}]}
